For 3 compounds, IC50 results are on record in patent publication EP0820989A1, “IMIDAZOLE DERIVATIVES AND MEDICINAL COMPOSITION THEREOF” (YAMANOUCHI PHARMACEUTICAL CO., LTD., priority 1995, dated 1996).

Molecules are shown by their SMILES. Read-outs that look alike come from different tables or passages of the source.

The test concerns the target T1, rat steroid 17-20 lyase (Rattus norvegicus, UniProt P11715).
T1 construct: Testes were excised from ten-week-old male Wistar rats, homogenized and then centrifuged to give microsomes; from tissue; host or cells: testis microsomes of ten-week-old male Wistar rats
T1 sequence (P11715 1-507): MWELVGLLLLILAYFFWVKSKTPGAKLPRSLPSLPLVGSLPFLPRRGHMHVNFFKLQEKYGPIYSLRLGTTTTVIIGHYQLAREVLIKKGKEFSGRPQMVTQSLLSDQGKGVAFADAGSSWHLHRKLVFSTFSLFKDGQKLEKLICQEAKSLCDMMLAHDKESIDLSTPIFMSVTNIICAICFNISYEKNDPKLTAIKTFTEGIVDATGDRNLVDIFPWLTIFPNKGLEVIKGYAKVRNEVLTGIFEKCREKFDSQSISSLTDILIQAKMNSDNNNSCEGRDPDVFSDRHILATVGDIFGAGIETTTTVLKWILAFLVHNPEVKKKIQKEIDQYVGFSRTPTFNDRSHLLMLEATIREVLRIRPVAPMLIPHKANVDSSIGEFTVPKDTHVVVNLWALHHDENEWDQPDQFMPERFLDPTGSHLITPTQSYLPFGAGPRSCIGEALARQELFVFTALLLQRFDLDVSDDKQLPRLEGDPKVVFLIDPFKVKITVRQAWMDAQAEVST
Description: Measurement of inhibition of rat steroid 17-20 lyase activity [in vitro]. Format: biochemical. Here is the method:
(1) Measurement of inhibition of rat steroid 17-20 lyase activity [in vitro]
This was carried out in accordance with the method described in J. Steroid Biochem., Vol.33, No.6, 1191-1195 (1989).
Testes were excised from ten-week-old male Wistar rats, homogenized and then centrifuged to give microsomes. The microsomal protein (50 µg), 1 µM of [1,2-^3H]-17α-hydroxyprogesterone (5.55 × 10^5 dpm) and a test compound were dissolved in 100 µl of 50 mM phosphate buffer (pH 7.4), NADPH solution was added, and then the mixture was incubated at 37°C for 60 minutes. Then, 400 µl of a mixed solution of methanol and tetrahydrofuran (2:3) was added, and the mixture was subjected to centrifugation, and then radioactivities of the substrate and the formed product (androstenedione and testosterone) in the resulting supernatant were measured by a high performance liquid chromatography (HPLC) equipped with a radioisotope detector to examine the activity of the test compound to inhibit steroid 17-20 lyase.

As a reminder, the IC50 is the concentration at which inhibition is half-maximal.

On to `Fc1ccc2c(c1)[nH]c1cc(Cc3cccnc3)ccc12` [Control compound, reference compound], for which, where the note is “rat testis microsomes (50 µg protein), 1 µM [1,2-3H]-17α-hydroxyprogesterone, NADPH, pH 7.4, 37°C, 60 minutes, HPLC, read-out: Inhibition of steroid 17-20 lyase activity IC50”, the IC50 amounted to 12.7 nM. As for `CC(c1ccc2c(c1)[nH]c1ccccc12)c1c[nH]cn1` (stereo not drawn) [Example 1e, 2-[1-(1H-Imidazol-4-yl)ethyl]-9H-carbazole], the IC50 came out at 3.9 nM. `CCCn1cncc1Cc1ccc2c(c1)[nH]c1ccccc12` [Example 13, 2-[(1-Propyl-1H-imidazol-5-yl)methyl]-9H-carbazole] registered a 50% inhibitory concentration (IC50) of 2.5 nM.
